Data on 18 compounds can be found in patent publication US11976072B2, “Diacylglycerol kinase modulating compounds” (priority 2021, dated 2024).

Like-named read-outs stand apart in the source and are kept apart here.

Assay [1] concerns the target human DGKα (Homo sapiens, UniProt P23743). The experiment in a line: DGKα Biochemical Activity Assay (ADP-Glo).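 Also: luminescent detection of ADP produced as DGKα phosphorylates DAG to phosphatidic acid, IC50 from four-parameter nonlinear curve fit.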 Particulars: recombinant DGKα 1 nM, 100 μM ATP, 18:1 DAG/POPS/octylglucoside micelles, 1 hour at 25° C.; geometric mean; read-out: HTBS DGKa 1X ATP KM IC50.
Assay [2] relates to Jurkat NFκB-luciferase cells. The experiment in a line: Jurkat NFκB-Luciferase Assay. Format: cell-based. Particulars: Homo sapiens. The procedure:
The day after, the excess antibody was washed out five times with 100 ul/well of assay medium (RPMI supplemented with 10% fetal bovine serum) using a Biotek EL406 instrument and leaving 20 ul of residual volume in each well. Jurkat NFκB-luciferase cells (Promega #) were harvested and diluted to 1 million cells/ml in assay medium. […] Thirty microliters of medium containing the Jurkat NFκB-luciferase cells were then dispensed using a Biotek MicroFlo instrument in each well of the compound-containing plate. […] Forty microliters of One-Glo Ex (Promega) was then added to the assay mixture and luciferase activity was read on a Envision plate reader 7 minutes later.

Where [3] appears, read: Jurkat NFκB-luciferase cells activated with anti-CD3 antibody (OKT3), 2.5 hrs at 37° C., geometric mean, read-out: DGK NFKb Luciferase EC50.

human DGKα, sequence (P23743 whole entry): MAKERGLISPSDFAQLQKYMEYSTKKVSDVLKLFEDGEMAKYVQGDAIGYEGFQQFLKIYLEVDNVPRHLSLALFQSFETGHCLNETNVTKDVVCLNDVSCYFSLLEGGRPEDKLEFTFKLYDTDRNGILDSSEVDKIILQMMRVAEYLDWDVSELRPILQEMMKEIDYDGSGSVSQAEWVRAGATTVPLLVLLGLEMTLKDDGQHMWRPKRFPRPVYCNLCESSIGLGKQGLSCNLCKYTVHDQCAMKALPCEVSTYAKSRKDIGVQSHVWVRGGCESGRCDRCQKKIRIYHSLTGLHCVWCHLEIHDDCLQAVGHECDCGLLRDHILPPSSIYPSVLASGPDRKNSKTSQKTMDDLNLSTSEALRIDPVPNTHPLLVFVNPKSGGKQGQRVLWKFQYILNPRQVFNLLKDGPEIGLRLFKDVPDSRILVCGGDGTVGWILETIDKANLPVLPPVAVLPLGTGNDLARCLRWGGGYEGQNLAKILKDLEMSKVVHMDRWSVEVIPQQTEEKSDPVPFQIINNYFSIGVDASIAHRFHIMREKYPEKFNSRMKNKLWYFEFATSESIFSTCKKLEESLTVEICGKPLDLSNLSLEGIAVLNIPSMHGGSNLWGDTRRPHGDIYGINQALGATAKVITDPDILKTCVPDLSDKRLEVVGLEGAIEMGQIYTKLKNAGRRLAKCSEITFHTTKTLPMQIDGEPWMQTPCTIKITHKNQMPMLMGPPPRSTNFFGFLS

For the compound `Cc1nnc2nc(N3CCN(C)Cc4c(C#CC5(C(F)(F)F)CC5)cccc43)c3c(F)cccc3n12` [Example 164, 6-fluoro-1-methyl-5-[4-methyl-6-[2-[1-(trifluoromethyl)cyclopropyl]ethynyl]-3,5-dihydro-2H-1,4-benzodiazepin-1-yl]-[1,2,4]triazolo[4,3-a]quinazoline], the IC50 in assay [1] turned out to be 13 nM. Moreover, the EC50 in assay [2] (setting [3]) was 3.63 nM.
On to `Fc1ccc2c(c(N3CCOCc4c(C#CC5(C(F)(F)F)CC5)cccc43)nc3nncn32)c1F` [Example 203, 1-(6,7-Difluoro-[1,2,4]triazolo[4,3-a]quinazolin-5-yl)-6-[2-[1-(trifluoromethyl)cyclopropyl]ethynyl]-3,5-dihydro-2H-4,1-benzoxazepine], for which the IC50 in assay [1] is 2.1 nM. Further, in assay [2] (setting [3]), the EC50 was 0.307 nM.
On to `Cc1nnc2nc(N3CCOCc4c(C#CC(C)(C)NC(=O)C5(C(F)(F)F)CC5)cccc43)c3c(F)cccc3n12` [Example 147, N-(4-(1-(6-fluoro-1-methyl-[1,2,4]triazolo[4,3-a]quinazolin-5-yl)-1,2,3,5-tetrahydrobenzo[e][1,4]oxazepin-6-yl)-2-methylbut-3-yn-2-yl)-1-(trifluoromethyl) cyclopropane-1-carboxamide], for which the IC50 in assay [1] amounted to 3.16 nM. In addition, the EC50 in assay [2] (setting [3]) was found to be 7.74 nM.
As to `Cc1nnc2nc(N3CCCc4c(C#CC5CCOCC5)cccc43)c3c(F)cccc3n12` [Example 26, 6-fluoro-1-methyl-5-(5-((tetrahydro-2H-pyran-4-yl)ethynyl)-3,4-dihydroquinolin-1(2H)-yl)-[1,2,4]triazolo[4,3-a]quinazoline], in assay [1], the IC50 was 22.5 nM. In assay [2] (setting [3]), the EC50 is 2.46 nM.
On to `Cc1cnc(C(C)(C)C#Cc2cccc3c2CCCN3c2nc3nnc(C)n3c3cccc(F)c23)o1` [Example 72, 2-(4-(1-(6-fluoro-1-methyl-[1,2,4]triazolo[4,3-a]quinazolin-5-yl)-1,2,3,4-tetrahydroquinolin-5-yl)-2-methylbut-3-yn-2-yl)-5-methyloxazole], for which the IC50 in assay [1] came out at 19.8 nM. Further, the EC50 in assay [2] (setting [3]) is 2.2 nM.
On to `Cc1nnc2nc(N(CC(F)F)c3ccnc(C#CC(C)(C)C(F)(F)F)c3F)c3c(F)cccc3n12` [Example 43, N-(2,2-difluoroethyl)-6-fluoro-N-[3-fluoro-2-(4,4,4-trifluoro-3,3-dimethyl-but-1-ynyl)-4-pyridyl]-1-methyl-[1,2,4]triazolo[4,3-a]quinazolin-5-amine], for which the IC50 in assay [1] stood at 9.97 nM. Moreover, the EC50 in assay [2] (setting [3]) came out at 1.22 nM.
For the compound `Cc1nnc2nc(N3CCOCc4c(C#CC(C)(C)C(C)(F)F)cccc43)c3c(F)cccc3n12` [Example 187, 6-(4,4-Difluoro-3,3-dimethyl-pent-1-ynyl)-1-(6-fluoro-1-methyl-[1,2,4]triazolo[4,3-a]quinazolin-5-yl)-3,5-dihydro-2H-4,1-benzoxazepine], the IC50 in assay [1] came to 12.3 nM. In addition, in assay [2] (setting [3]), the EC50 was 1.45 nM.
On to `Cc1nnc2nc(N3CCOCc4c3ccnc4C#CC3(C)CC3)c3cc(F)ccc3n12` [Example 132, 1-(7-fluoro-1-methyl-[1,2,4]triazolo[4,3-a]quinazolin-5-yl)-6-((1-methylcyclopropyl)ethynyl)-1,2,3,5-tetrahydropyrido[4,3-e][1,4]oxazepine], for which the IC50 in assay [1] was determined as 3.1 nM. For the same compound, the EC50 in assay [2] (setting [3]) was 6.64 nM.
Consider `Cc1nnc2nc(N(CC(F)F)c3ccnc(C#CC4CC4)c3)c3cc(F)ccc3n12` [Example 87, N-(2-(cyclopropylethynyl)pyridin-4-yl)-N-(2,2-difluoroethyl)-7-fluoro-1-methyl-[1,2,4]triazolo[4,3-a]quinazolin-5-amine], for which the IC50 in assay [1] came to 3.5 nM. Besides, in assay [2] (setting [3]), the EC50 worked out at 7.57 nM.
Consider `Cc1nnc2nc(N3CCN(C)Cc4c(C#CC(C)(C)C(F)(F)F)cccc43)c3cc(F)ccc3n12` [Example 171, 7-fluoro-1-methyl-5-[4-methyl-6-(4,4,4-trifluoro-3,3-dimethyl-but-1-ynyl)-3,5-dihydro-2H-1,4-benzodiazepin-1-yl]-[1,2,4]triazolo[4,3-a]quinazoline], for which the IC50 in assay [1] came out at 14.8 nM. Further, the EC50 in assay [2] (setting [3]) turned out to be 7.36 nM.
Taken in the same sequence, the figures for `Cc1nnc2nc(N3CCCc4c(C#CC(C)(C)O)cc(F)cc43)c3c(F)cccc3n12` [Example 152, 4-(7-fluoro-1-(6-fluoro-1-methyl-[1,2,4]triazolo[4,3-a]quinazolin-5-yl)-1,2,3,4-tetrahydroquinolin-5-yl)-2-methylbut-3-yn-2-ol] were 34.6 nM and 53.9 nM.
As for `Cc1nnc2nc(N3CCCCc4c(C#CC5(C)CC5)cncc43)c3c(F)cccc3n12` [Example 6, 6-fluoro-1-methyl-5-(6-((1-methylcyclopropyl)ethynyl)-2,3,4,5-tetrahydro-1H-pyrido[3,4-b]azepin-1-yl)-[1,2,4]triazolo[4,3-a]quinazoline], the 50% inhibitory concentration (IC50) in assay [1] turned out to be 44.1 nM. Besides, in assay [2] (setting [3]), the EC50 amounted to 0.692 nM.
`CCC(C)(O)C#Cc1cc(F)cc(N(CC(F)F)c2nc3nnc(C)n3c3ccc(F)c(F)c23)c1` (stereo not drawn) [Example 241, 1-[3-[2,2-difluoroethyl-(6,7-difluoro-1-methyl-[1,2,4]triazolo[4,3-a]quinazolin-5-yl)amino]-5-fluoro-phenyl]-3-methyl-pent-1-yn-3-ol]: in assay [1], the IC50 came out at 38.6 nM. Moreover, the EC50 in assay [2] (setting [3]) was determined as 29.5 nM.
Take `Cc1nnc2nc(N3CCCc4c(C#CC(C)(C)C(F)F)cccc43)c3c(Cl)c(F)ccc3n12` [Example 34, 6-chloro-5-[5-(4,4-difluoro-3,3-dimethyl-but-1-ynyl)-3,4-dihydro-2H-quinolin-1-yl]-7-fluoro-1-methyl-[1,2,4]triazolo[4,3-a]quinazoline]: the IC50 in assay [1] worked out at 30.4 nM. Further, the EC50 in assay [2] (setting [3]) came out at 0.907 nM.
With `Cc1nnc2nc(N3CCCc4c(C#CC5(O)CC6CC(C6)C5)cccc43)c3c(F)cccc3n12` (stereo not drawn) [Example 198, 3-((1-(6-fluoro-1-methyl-[1,2,4]triazolo[4,3-a]quinazolin-5-yl)-1,2,3,4-tetrahydroquinolin-5-yl)ethynyl)bicyclo[3.1.1]heptan-3-ol], the IC50 in assay [1] came out at 10.8 nM. Also, the EC50 in assay [2] (Jurkat, […], read-out: DGK NFKb Luciferase EC50 (nM)) came out at 0.508 nM.
As to `Cc1nc(C#Cc2cccc3c2COCCN3c2nc3nnc(C)n3c3cccc(F)c23)co1` [Example 179, 1-(6-Fluoro-1-methyl-[1,2,4]triazolo[4,3-a]quinazolin-5-yl)-6-[2-(2-methyloxazol-4-yl)ethynyl]-3,5-dihydro-2H-4,1-benzoxazepine], the IC50 in assay [1] was determined as 9.59 nM. Also, the EC50 in assay [2] (setting [3]) was found to be 9.13 nM.
Taken in the same sequence, the figures for `Cc1nnc2nc(N(CC(F)F)c3cc(F)cc(C#CC4CC(F)(F)C4)c3)c3c(F)c(F)ccc3n12` [Example 237, N-[3-[2-(3,3-difluorocyclobutyl)ethynyl]-5-fluoro-phenyl]-N-(2,2-difluoroethyl)-6,7-difluoro-1-methyl-[1,2,4]triazolo[4,3-a]quinazolin-5-amine] were 8.31 nM and 1.26 nM.
Take `Cc1nnc2nc(N(CC(F)F)c3cc(F)cc(C#CC4(C)COC4)c3)c3c(F)cccc3n12` [Example 22, N-(2,2-difluoroethyl)-6-fluoro-N-(3-fluoro-5-((3-methyloxetan-3-yl)ethynyl)phenyl)-1-methyl-[1,2,4]triazolo[4,3-a]quinazolin-5-amine]: the IC50 in assay [1] turned out to be 18.9 nM. Besides, the EC50 in assay [2] (setting [3]) was 10.1 nM.

One may read the IC50 as the concentration needed to halve the response being measured. The EC50 is the midpoint of the concentration-response curve.
